Results taken from patent publication US20230203081A1, “LINCOSAMIDE ANTIBIOTICS AND USES THEREOF” (President and Fellows of Harvard College, priority 2020, published 2023).
Like-named read-outs stand apart in the source and are kept apart here.

Experiments:
Type in all cases: cell-based
E. coli armA = assay: microbe, parasite or virus in culture; settings: Escherichia coli, E. coli armA
In short: (§1)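 Inoculum for broth microdilution was 5×10^5 CFU/mL final, prepared from overnight 35° C blood-agar subcultures (separate handling for streptococcal and anaerobic strains); MICs read by CLSI broth microdilution or agar dilution.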

E. coli ΔTolC = assay: microbe, parasite or virus in culture; settings: Escherichia coli, E. coli ΔTolC
In short: as §1

S. aureus BAA 977 iErmA = assay: microbe, parasite or virus in culture; settings: Staphylococcus aureus
In short: as §1

S. aureus MP-549 msrA = assay: microbe, parasite or virus in culture; settings: Staphylococcus aureus, MP549MSRA
In short: as §1

[1] = test system: broad panel of different clinical isolates; assay: microbe, parasite or virus in culture
In short: as §1

E. coli ATCC 25922 = assay: MIC (broth microdilution or agar dilution, CLSI); settings: Escherichia coli
In short: as §1

E. coli LptD = assay: MIC (broth microdilution or agar dilution, CLSI); settings: Escherichia coli, read-out: MIC
In short: as §1

E. faecalis ATCC 29212 = assay: MIC (broth microdilution or agar dilution, CLSI); settings: Enterococcus faecalis, read-out: MIC
In short: as §1

[2] = test system: E. faecalis MMX 847; cErmB; assay: MIC (broth microdilution or agar dilution, CLSI); settings: Enterococcus faecalis, E. faecalis MMX 847, cErmB
In short: as §1

K. pneumoniae ATCC 10031 = assay: MIC (broth microdilution or agar dilution, CLSI); settings: Klebsiella pneumoniae, ATCC10031, K. pneumoniae ATCC 10031; read-out: MIC
In short: as §1

[3] = test system: S. aureus ATCC BAA-1707 (MRSA); assay: MIC (broth microdilution or agar dilution, CLSI)
In short: as §1

S. aureus MMX 3035 cErmA = assay: MIC (broth microdilution or agar dilution, CLSI); settings: Staphylococcus aureus, MMX3035CERMA; S. aureus MMX 3035 cErmA; read-out: MIC
In short: as §1

S. pneumoniae ATCC 49619 = assay: MIC (broth microdilution or agar dilution, CLSI); settings: Streptococcus pneumoniae, read-out: MIC
In short: as §1

S. pneumoniae ATCC 6303 = assay: MIC (broth microdilution or agar dilution, CLSI)
In short: as §1

[4] = test system: S. pneumoniae MMX 3028 cErmB; assay: MIC (broth microdilution or agar dilution, CLSI); settings: Streptococcus pneumoniae, MMX3028CERMB, S. pneumoniae MMX 3028 cErmB
In short: as §1

[5] = test system: S. pneumoniae MMX 3031 cMefA; assay: MIC (broth microdilution or agar dilution, CLSI); settings: Streptococcus pneumoniae, MMX3031CMEFA, read-out: MIC
In short: as §1

S. pyogenes ATCC 19615 = assay: MIC (broth microdilution or agar dilution, CLSI); settings: Streptococcus pyogenes, read-out: MIC
In short: as §1

[6] = test system: S. pyogenes MMX 946; cErmB; assay: MIC (broth microdilution or agar dilution, CLSI); settings: Streptococcus pyogenes, S. pyogenes MMX 946, cErmB
In short: as §1

Measured: MIC

CCC[C@@H]1C[C@@H](C(=O)N[C@@H]([C@H]2O[C@H](SC)[C@H](O)[C@@H](O)[C@H]2O)[C@H](C)Cl)N(C)C1 [Clindamycin, clindamycin, reference compound]
8 µg/mL: [1]; Enterococcus faecalis, E. faecalis HAV#612, Line R | [1]; Enterococcus faecalis, S. faecalis 5074, Line R | [1]; Enterococcus faecium, E. faecium HAV#317, Clinical | [1]; Enterococcus faecium, E. faecium HAV#327, Clinical | [1]; Enterococcus faecium, E. faecium HAV#604, Clinical | [1]; Enterococcus faecium, VRE, E. faecium HAV#326, Clinical | [1]; Haemophilus influenzae, ATCC9007, H. influenzae HAV#376, ATCC-9007
< 0.06 µg/mL: [5]; S. pneumoniae HAV#034, MMX 3031, cMefA
> 128 µg/mL: E. coli armA | S. aureus BAA 977 iErmA; BAA-977 / MRSA, 24 h | [1]; Acinetobacter baumannii, A. baumannii HAV#660, Clinical | [1]; Enterococcus faecalis, VRE, E. faecalis HAV#251, Clinical VRE | [1]; Enterococcus faecium, VRE, E. faecium HAV#318, VanA | [1]; Enterococcus faecium, VRE, E. faecium HAV#320, Clinical | [1]; Escherichia coli, E. coli HAV#501, Clinical | [1]; Escherichia coli, E. coli HAV#512, Clinical | [1]; Escherichia coli, E. coli HAV#513, Clinical | [1]; Klebsiella pneumoniae, K. pneumoniae HAV#402, FQ-R | [1]; Klebsiella pneumoniae, K. pneumoniae HAV#405, Clinical | [1]; Klebsiella pneumoniae, K. pneumoniae HAV#406, Clinical | [1]; Klebsiella pneumoniae, K. pneumoniae HAV#407, Clinical | [1]; Klebsiella pneumoniae, K. pneumoniae HAV#408, Clinical | [1]; Klebsiella pneumoniae, K. pneumoniae HAV#409, ESBL-producing | [1]; Staphylococcus aureus, MRSA, S. aureus HAV#220, Line R | [1]; Staphylococcus aureus, MSSA, S. aureus HAV#219, Line R | [1]; Staphylococcus aureus, S. aureus HAV#217, cfr | [1]; Staphylococcus epidermidis, S. epidermidis HAV# 275 Clinical, cfr | [1]; Staphylococcus epidermidis, S. epidermidis HAV# 276, cfr | [1]; Staphylococcus epidermidis, S. epidermidis HAV#277, Line R | [1]; Staphylococcus epidermidis, S. epidermidis HAV#278 Line R | E. coli ATCC 25922; ATCC25922, E. coli ATCC 25922 | E. coli ATCC 25922; ATCC25922, E. coli HAV#006, ATCC 25922 | [2] | [4] | [6]
16 µg/mL: [1]; Enterococcus faecalis, E. faecalis HAV#602, Clincal | E. faecalis ATCC 29212; ATCC29212, E. faecalis ATCC 29212 | E. faecalis ATCC 29212; ATCC29212, E. faecalis HAV#005, ATCC 29212 | K. pneumoniae ATCC 10031
2 µg/mL: [1]; Neisseria gonorrhoeae, N. gonorrhoeae HAV#701, Clinical | [1]; Staphylococcus haemolyticus, S. haemolyticus 5052, Line R & Methicillin R | [1]; Staphylococcus haemolyticus, S. haemolyticus HAV#252, Line R & Methicillin R | E. coli LptD; E. coli LptD
> 64 µg/mL: [1]; Staphylococcus aureus, S. aureus HAV#211, Clinical | [1]; Staphylococcus aureus, VISA, S. aureus HAV#203, Clinical (VISA) | [1]; Streptococcus pneumoniae, ATCC700673, S. pneumoniae HAV#352, ATCC 700673, MDR | [1]; Streptococcus pneumoniae, S. pneumoniae HAV#356, Clinical | E. coli ATCC 25922; ATCC25922, E. coli ATCC 25922, read-out: MIC | [2]; read-out: MIC | S. aureus MMX 3035 cErmA | [4]; read-out: MIC | [6]; read-out: MIC
32 µg/mL: [1]; Acinetobacter baumannii, A. baumannii HAV#663, Clinical
0.06 µg/mL: [1]; Staphylococcus aureus, S. aureus HAV#051, mecA, norA, spcl, ermA, aad1, aac6′-aph2″ | [1]; Staphylococcus aureus, S. aureus HAV#052, mecA, norA, fosB, blaZ | [1]; Staphylococcus aureus, S. aureus HAV#053 mecA, norA, fosB | [1]; Staphylococcus aureus, S. aureus HAV#214, Clinical | S. pneumoniae ATCC 49619; ATCC49619, S. pneumoniae HAV#003, ATCC 49619 | S. pneumoniae ATCC 6303; S. pneumoniae HAV#351, ATCC 6303 | S. pneumoniae ATCC 6303; Streptococcus pneumoniae, ATCC6303, S. pneumoniae ATCC 6303, read-out: MIC | [5]; S. pneumoniae MMX 3031 cMefA | S. pyogenes ATCC 19615; ATCC19615, S. pyogenes HAV#004, ATCC 19615
0.25 µg/mL: [1]; Staphylococcus epidermidis, S. epidermidis HAV#279, Line R | [1]; Streptococcus pneumoniae, ATCCBAA255, S. pneumoniae HAV#354, ATCC-BAA-255 | [1]; Streptococcus pneumoniae, ATCCBAA334, S. pneumoniae HAV#353, ATCC-BAA-334 | [1]; Streptococcus pneumoniae, S. pneumoniae HAV#358, Clinical
4 µg/mL: E. coli ΔTolC | E. coli LptD; E. coli HAV#040, LptD
64 µg/mL: [1]; Acinetobacter baumannii, A. baumannii HAV#653, Clinical | [1]; Acinetobacter baumannii, A. baumannii HAV#654, Clinical | [1]; Acinetobacter baumannii, A. baumannii HAV#658, Clinical | [1]; Acinetobacter baumannii, A. baumannii HAV#661, Clinical | [1]; Acinetobacter baumannii, A. baumannii HAV#662, Clinical | [1]; Escherichia coli, E. coli HAV#503, Clinical
≤ 0.06 µg/mL: S. pneumoniae ATCC 49619; ATCC49619, S. pneumoniae ATCC 49619 | S. pyogenes ATCC 19615; ATCC19615, S. pyogenes ATCC 19615
128 µg/mL: [1]; Acinetobacter baumannii, A. baumannii HAV#651, Clinical | [1]; Acinetobacter baumannii, A. baumannii HAV#652 Clinical | [1]; Acinetobacter baumannii, A. baumannii HAV#655, Clinical | [1]; Acinetobacter baumannii, A. baumannii HAV#656, Clinical | [1]; Acinetobacter baumannii, A. baumannii HAV#657, Clinical | [1]; Acinetobacter baumannii, A. baumannii HAV#659, Clinical | [1]; Acinetobacter baumannii, A. baumannii HAV#664, Carbapenem R | [1]; Enterococcus faecalis, E. faecalis HAV#611, Line R & Vanco R | [1]; Enterococcus faecalis, S. faecalis 5060, Line R & Vanco R | [1]; Escherichia coli, E. coli HAV#511, Clinical | [1]; Escherichia coli, E. coli HAV#514, Clinical | [1]; Escherichia coli, E. coli HAV#516, ESBL-producing | [1]; Klebsiella pneumoniae, K. pneumoniae HAV#404, Clinical | [1]; Staphylococcus aureus, S. aureus HAV#216, Clinical, cfr
0.125 µg/mL: S. aureus BAA 977 iErmA; BAA-977 / MRSA | S. aureus MP-549 msrA; S. aureus HAV#032, MP-549, MSR(A) | [1]; Staphylococcus aureus, S. aureus HAV#212, Clinical | [1]; Staphylococcus aureus, S. aureus HAV#213, Clinical | [1]; Staphylococcus aureus, S. aureus HAV#215, Clinical | [3]; S. aureus HAV#016, ATCC BAA-1707, MRSA | [3]; Staphylococcus aureus
0.12 µg/mL: S. aureus BAA 977 iErmA; BAA977 | S. aureus MP-549 msrA; S. aureus MP-549 msrA
0.5 µg/mL: [1]; Neisseria gonorrhoeae, N. gonorrhoeae HAV#702, Clinical
